Assay results as given in patent US11541121B2, “Phosphorothioate-conjugated peptides and methods of using the same” (CITY OF HOPE, priority 2017, dated 2023).
Where no end group is shown, it is not given here. [ ]: non-standard residue; d: D form. pY = N[C@@H](Cc1ccc(OP(=O)(O)O)cc1)C(=O)O

What was measured:
pY-STAT3 = pY-STAT3 Western blot in IL-6 stimulated HepG2 cells; type: cell-based, human; conditions: 1.0 μM, 30 min prior to IL-6 stimulation
Experimental: FIG. 16: gp130-peptide treatment of cancer cells inhibits pY-STAT3 activation. Human hepatoma cells HepG2 were treated as indicated with 1.0 μM gp130-peptide peptide (i.e., 2263165 is phosphorothioate elongated SEQ ID NO:4, 1209196 is phosphorothioate elongated SEQ ID NO:8, and 2263163 is phosphorothioate elongated SEQ ID NO:9) for either 30 min prior to IL-6 stimulation. Whole cell lysates were subjected to electrophoretic protein separation and STAT3 activity was assessed by Western blot detecting phospho-tyrosine. Total STAT3 protein staining was included as a loading control.
Human hepatoma cells HepG2 were treated as indicated with 1.0 uM gp130-peptide for either 30 min prior to IL-6 stimulation. Whole cell lysates were subjected to electrophoretic protein separation and STAT3 activity was assessed by Western blot detecting phospho-tyrosine. Total STAT3 protein staining was included as a loading control.

[1] = tested on: IL-6/gp130/STAT3 target genes; assay: RT-PCR of IL-6/gp130/STAT3 acute-phase target genes in IL-6 stimulated HepG2 cells; type: cell-based, human; conditions: 1.0 μM, 24 h upon IL-6 stimulation
Experimental: (§1) Human hepatoma cells HepG2 were treated as indicated with 1.0 μM gp130-peptide (i.e., IL6-65 represents phosphorothioate elongated SEQ ID NO:4, IL6-96 represents phosphorothioate elongated SEQ ID NO:8, and IL-63 represents phosphorothioate elongated SEQ ID NO:9) for 24 h upon IL-6 stimulation. mRNA was isolated and target gene expression was assessed by RT-PCR. SD shown; T-test: *) P<0.05, **) P<0.01, ***) P<0.001.
Interleukin-6 (IL-6) signaling feeds intracellular STAT3 activity by binding to the extracellular domain of IL-6Ralpha (gp80) recruiting the signaling co-receptors IL-6Rbeta (gp130). IL-6 engagement to these receptors leads to the phosphorylation of 6 tyrosine residues in the cytoplasmic tail of gp130; 3 of those phospho-tyrosines (pY767, pY905 and pY915) serve as the major docking sites recognized by STAT3s SH2 domain initiating STAT3 intracellular signaling. Applicants disclose these three gp130-peptides modified by phosphorothioated ssDNA extension (FIG. 13) considerably reduce expression of a repertoire of IL-6/gp130/STAT3 target genes orchestrating the acute-phase inflammatory response (FIG. 15) once they undergo cellular internalization (FIG. 14).

[2] = tested on: IL-6/gp130 signaling; EGFR signaling; assay: IL-6 versus EGF stimulated signaling in HepG2 cells (STAT3 and MAPK p42/44 Western blot); type: cell-based, human; conditions: 1.0 μM, 30 min prior to IL-6 or EGF stimulation
Experimental: Human hepatoma cells HepG2 were treated as indicated with 1.0 μM gp130-peptide peptide (i.e., 65 is phosphorothioate elongated SEQ ID NO:4, 96 is phosphorothioate elongated SEQ ID NO:8, and 63 is phosphorothioate elongated SEQ ID NO:9) for either 30 min prior to IL-6 or EGF stimulation. Whole cell lysates were subjected to electrophoretic protein separation and STAT3 as well as MAPK (p42/44) activity was assessed by Western blot. Total STAT3 and MAPK (p42/44) protein staining was included as a loading control.

[3] = tested on: survivin (BIRC5) and BclXL (BCL2L1); assay: RT-PCR of cancer cell survival genes in HepG2 cells; type: cell-based, human; conditions: 1.0 μM, 24 h upon IL-6 stimulation
Experimental: as §1, with “T-test:” for “T-test: *) P<0.05, **) P<0.01,”

[4] = tested on: W76964 (mouse pancreatic cancer cell line) cells; assay: Cell penetration in W76964 cells (flow cytometry); type: cell-based; conditions: 1×10^6 cells, 10 μg, 2 hours at 37° C.
Experimental: FIGS. 29A-29B: Combination treatment of cell-penetrating Gp130-inhibitory peptide (i.e., Gp130 peptide) and c-MYC-inhibitory peptide (i.e., c-MYC binding peptide) (SEQ ID NO:10) suppresses tumor growth in a syngeneic mouse model of pancreatic cancer. FIG. 29A. […] 1×10^6 cells were incubated with 10 μg of PS-GP130- or PS-c-MYC-peptide for 2 hours at 37° C. […] FIG. 29B. W76964 cells were engrafted in C57BL/6 mice to generate tumors. After tumor size reached approximately 80 mm^3, PO-Gp130 or PS-GP130 was mixed with PS-c-MYC-inhibitory peptide (1:1 ratio) to treat mice systemically (i.v.) at 20 μg every other day. Tumor size was measured by a caliber. Tumor volume was calculated (V=(L×W×W)), where V is tumor volume, W is tumor width, L is tumor length. When some tumors start to reach 600 mm^3, all groups of mice were euthanized at the same time using protocols approved by IACUC of City of Hope. N=6 as indicated.
1×10^6 cells were incubated with 10 μg of PS-GP130- or PS-c-MYC-peptide for 2 hours at 37° C. […] W76964 cells were engrafted in C57BL/6 mice to generate tumors (FIG. 29B). […] Tumor size was measured by a caliber. Tumor volume was calculated (V=(L×W×W)), where V is tumor volume, W is tumor width, L is tumor length. […]

Substance	pY-STAT3 levels / STAT3 activity (pY-STAT3)	expression of IL-6/gp130/STAT3 target genes of the acute-phase inflammatory response [1]	specificity: IL-6/gp130 signaling versus EGF/EGFR signaling [2]	expression of survival genes survivin (BIRC5) and BclXL (BCL2L1) [3]	cell penetration, flow cytometry [4]
PS-2263165: phosphorothioate elongated SEQ ID NO:4, gp130 peptide phosphorylated at tyrosine 767, VHSGpYRHQVPS (VHSG[pY]RHQVPS; also: phosphorothioate elongation)	inhibitory efficacy	significantly reduces	specifically inhibits IL-6/gp130 signaling but not EGFR signaling	significantly reduces	–
PS-c-MYC-inhibitory peptide: phosphorothioate-conjugated c-MYC binding peptide SEQ ID NO:10 KNDTHQQDIDDLK (also: phosphorothioate-conjugated)	–	–	–	–	cell penetration
PS-2263163: phosphorothioate elongated SEQ ID NO:9, gp130 peptide phosphorylated at tyrosine 915, RQGGpYMPQ (RQGG[pY]MPQ; also: phosphorothioate elongation)	inhibitory efficacy	significantly reduces	specifically inhibits IL-6/gp130 signaling but not EGFR signaling	significantly reduces	–
PS-1209196: phosphorothioate elongated SEQ ID NO:8, gp130 peptide phosphorylated at tyrosine 905, MPKSpYLPQTV (MPKS[pY]LPQTV; also: phosphorothioate elongation)	inhibitory efficacy	significantly reduces	specifically inhibits IL-6/gp130 signaling but not EGFR signaling	significantly reduces	–
